Assay results from US9681664B2, “Macrocyclic picolinamides as fungicides” (Dow Agrosciences LLC, priority 2012, dated 2017).
Where two headings read alike, the source gives them in different places.

Columns and labels:
Assay type in all cases: in vivo
[1] = system: Blumeria graminis f. sp. hordei; Synonym: Erysiphe graminis f. sp. hordei; assay: Barley powdery mildew (ERYSGH) disease control; conditions: 24 h, 1 Day Protectant, high volume, read-out: Disease Control ERYSGH 1 DP
Description: Technical grades of materials were dissolved in acetone, which were then mixed with nine volumes of water containing 110 ppm Triton X-100. The fungicide solutions were applied onto wheat seedlings using an automated booth sprayer to run-off. All sprayed plants were allowed to air dry prior to further handling. All fungicides were evaluated using the aforementioned method for their activity vs. all target diseases. Wheat leaf blotch and brown rust activity were also evaluated using track spray applications, in which case the fungicides were formulated as EC formulations, containing 0.1% Trycol 5941 in the spray solutions. Barley seedlings (variety Harrington) were propagated in soil-less Metro mix, with each pot having 8 to 12 plants, and used in the test when first leaf was fully emerged. Test plants were inoculated by dusting with infected stock plants 24 hr after fungicide treatments. After inoculation the plants were kept in a greenhouse set at 20° C. for disease to develop. Fungicide formulation, application and disease assessment on the sprayed leaves followed the procedures as described in the Example A.

[2] = system: Mycosphaerella graminicola; Anamorph: Septoria tritici; assay: Leaf blotch of wheat (SEPTTR) disease control on wheat seedlings; conditions: Zymoseptoria tritici; for pest or weed control at 121.5 g/ha: low volume application, 121.5 g/H
Summary of the method: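 Wheat seedlings (Yuma, first leaf emerged) sprayed to run-off with compound in acetone/water with 110 ppm Triton X-100, or track-sprayed as EC with 0.1% Trycol 5941. Septoria tritici spores inoculated before or after treatment. Dew chambers, then 20 °C greenhouse. Percent disease control derived from severity (0–100%) relative to untreated plants.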

Erysiphe cichoracearum = assay: Powdery mildew of cucumber (ERYSCI) disease control; conditions: Golovinomyces cichoracearum, 24 h, 1 Day Protectant, high volume, read-out: Disease Control ERYSCI 1 DP
Description: Technical grades of materials were dissolved in acetone, which were then mixed with nine volumes of water containing 110 ppm Triton X-100. The fungicide solutions were applied onto wheat seedlings using an automated booth sprayer to run-off. All sprayed plants were allowed to air dry prior to further handling. All fungicides were evaluated using the aforementioned method for their activity vs. all target diseases. Wheat leaf blotch and brown rust activity were also evaluated using track spray applications, in which case the fungicides were formulated as EC formulations, containing 0.1% Trycol 5941 in the spray solutions. Cucumber seedlings (variety Bush Pickle) were grown in soil-less Metro mix, with one plant per pot, and used in the test when 12 to 14 days old. Plants were inoculated with a spore suspension 24 hr following fungicide treatments. After inoculation the plants remained in the greenhouse set at 20° C. until disease was fully expressed. Fungicide formulation, application and disease assessment on the sprayed leaves followed the procedures as described in the Example A.

Alternaria solani = assay: Tomato early blight (ALTESO) disease control; conditions: 24 h, 1 Day Protectant, high volume, read-out: Disease Control ALTESO 1 DP
Description: Technical grades of materials were dissolved in acetone, which were then mixed with nine volumes of water containing 110 ppm Triton X-100. The fungicide solutions were applied onto wheat seedlings using an automated booth sprayer to run-off. All sprayed plants were allowed to air dry prior to further handling. All fungicides were evaluated using the aforementioned method for their activity vs. all target diseases. Wheat leaf blotch and brown rust activity were also evaluated using track spray applications, in which case the fungicides were formulated as EC formulations, containing 0.1% Trycol 5941 in the spray solutions. Tomato plants (variety Outdoor girl) were propagated in soil-less Metro mix, with each pot having one plant, and used when 12 to 14 days old. Test plants were inoculated with an aqueous spore suspension of Alternaria solani 24 hr after fungicide treatments. After inoculation the plants were kept in 100% relative humidity (one day in a dark dew chamber followed by two to three days in a lighted dew chamber at 20° C.) to permit spores to germinate and infect the leaf. The plants were then transferred to a growth room at 22° C. for disease to develop. Fungicide formulation, application and disease assessment on the sprayed leaves followed the procedures as described in the Example A.

[3] = 24 h, High volume application, 1 Day Protectant, read-out: SEPTTR 1DP disease control
[4] = 72 h, High volume application, 3 Day Curative, read-out: SEPTTR 3DC disease control
[5] = 24 h, Wheat Leaf Blotch, 1 Day Protectant, high volume application, read-out: Disease Control SEPTTR 1 DP 100 ppm
[6] = 24 h, Wheat Leaf Blotch, 1 Day Protectant, read-out: Disease Control SEPTTR 1 DP 121.5 g/H
[7] = 72 h, Wheat Leaf Blotch, 3 Day Curative, high volume application, read-out: Disease Control SEPTTR 3 DC 100 ppm
[8] = 72 h, Wheat Leaf Blotch, 3 Day Curative, read-out: Disease Control SEPTTR 3 DC 121.5 g/H

Question: Which results are given for CCCO[C@H]1CCC[C@H](NC(=O)c2nccc(OC)c2OCOC(=O)C(C)C)C(=O)O[C@@H](C)[C@@H]1OC1CCCC1 [F154]?
Answer: pest or weed control at 100 ppm [1]: 80 to 100%; pest or weed control at 100 ppm [2, 3]: 80 to 100%; pest or weed control at 100 ppm [2, 4]: 80 to 100%; pest or weed control at 100 ppm (Erysiphe cichoracearum): 80 to 100%; pest or weed control at 100 ppm (Alternaria solani): 80 to 100%

Question: CCCO[C@H]1CCC[C@H](NC(=O)c2nccc(OC)c2OCOC(C)=O)C(=O)O[C@@H](C)[C@@H]1OC1CCCC1 [F155] was tested. Which pest or weed control at 100 ppm [1] did it give?
Answer: 80 to 100%

Question: What about the pest or weed control at 100 ppm [2, 3] of the same compound?
Answer: 80 to 100%

Question: What about the pest or weed control at 100 ppm [2, 4] of the same compound?
Answer: 80 to 100%

Question: What about the pest or weed control at 100 ppm (Erysiphe cichoracearum) of the same compound?
Answer: 80 to 100%

Question: And the pest or weed control at 100 ppm (Alternaria solani)?
Answer: 80 to 100%

Question: Which pest or weed control at 100 ppm [1] does the source give for CCOCC(=O)OCOc1c(OC)ccnc1C(=O)N[C@H]1CCC[C@H](Oc2ccccc2)[C@@H](OC(=O)C2CCCC2)[C@H](C)OC1=O [F237] here?
Answer: 0 to 80%

Question: And the pest or weed control at 100 ppm [2, 5]?
Answer: 0 to 80%

Question: What about the pest or weed control at 121.5 g/ha [2, 6] of the same compound?
Answer: < 0%

Question: And the pest or weed control at 100 ppm [2, 7]?
Answer: 0 to 80%

Question: And the pest or weed control at 121.5 g/ha [2, 8]?
Answer: 0 to 80%

Question: And the pest or weed control at 100 ppm (Erysiphe cichoracearum)?
Answer: < 0%

Question: What about the pest or weed control at 100 ppm (Alternaria solani) of the same compound?
Answer: 0 to 80%

Question: What does the source list for COc1ccnc(C(=O)N[C@H]2CCC[C@H](Oc3ccccc3)[C@@H](OC(=O)C3CC3)[C@H](C)OC2=O)c1OC(C)=O [F242]?
Answer: pest or weed control at 100 ppm [1]: 0 to 80%; pest or weed control at 100 ppm [2, 5]: 80 to 100%; pest or weed control at 121.5 g/ha [2, 6]: 0 to 80%; pest or weed control at 100 ppm [2, 7]: 80 to 100%; pest or weed control at 121.5 g/ha [2, 8]: 0 to 80%; pest or weed control at 100 ppm (Erysiphe cichoracearum): < 0%; pest or weed control at 100 ppm (Alternaria solani): < 0%

Question: COc1ccnc(C(=O)N[C@H]2CCC[C@H](OC3CCCC3)[C@@H](OCCCc3ccccc3)[C@H](C)OC2=O)c1OCOC(C)=O [F165] was tested. Which pest or weed control at 100 ppm [1] did it give?
Answer: 0 to 80%

Question: What about the pest or weed control at 100 ppm [2, 3] of the same compound?
Answer: 80 to 100%

Question: What about the pest or weed control at 100 ppm [2, 4] of the same compound?
Answer: 80 to 100%

Question: And the pest or weed control at 100 ppm (Erysiphe cichoracearum)?
Answer: 0 to 80%

Question: What about the pest or weed control at 100 ppm (Alternaria solani) of the same compound?
Answer: 80 to 100%

Question: Which results are given for COc1ccnc(C(=O)N[C@H]2CCC[C@H](OCCCC(F)(F)F)[C@@H](OC3CCCC3)[C@H](C)OC2=O)c1OC(C)=O [F173]?
Answer: pest or weed control at 100 ppm [1]: 0 to 80%; pest or weed control at 100 ppm [2, 3]: 80 to 100%; pest or weed control at 100 ppm [2, 4]: 80 to 100%; pest or weed control at 100 ppm (Erysiphe cichoracearum): 0 to 80%; pest or weed control at 100 ppm (Alternaria solani): 80 to 100%

Question: For COc1ccnc(C(=O)N[C@H]2CCC[C@H](OCC(C)C)[C@@H](OCC(C)C)[C@H](C)OC2=O)c1OCOC(=O)C(C)C [F37], which pest or weed control at 100 ppm [1] is on record?
Answer: 80 to 100%

Question: And the pest or weed control at 100 ppm [2, 3]?
Answer: 80 to 100%

Question: And the pest or weed control at 100 ppm [2, 4]?
Answer: 80 to 100%

Question: What about the pest or weed control at 100 ppm (Erysiphe cichoracearum) of the same compound?
Answer: 80 to 100%

Question: And the pest or weed control at 100 ppm (Alternaria solani)?
Answer: 80 to 100%

Question: CCCO[C@H]1CCC[C@H](NC(=O)c2nccc(OC)c2OCOC(C)=O)C(=O)O[C@@H](C)[C@@H]1Oc1ccccc1 [F138] was tested. Which pest or weed control at 100 ppm [1] did it give?
Answer: 0 to 80%

Question: And the pest or weed control at 100 ppm [2, 3]?
Answer: 80 to 100%

Question: And the pest or weed control at 100 ppm [2, 4]?
Answer: 80 to 100%

Question: What about the pest or weed control at 100 ppm (Erysiphe cichoracearum) of the same compound?
Answer: 0 to 80%

Question: And the pest or weed control at 100 ppm (Alternaria solani)?
Answer: 80 to 100%

Question: How did the pest or weed control at 100 ppm [1] turn out when COc1ccnc(C(=O)N[C@H]2CCC[C@H](Oc3ccccc3)[C@@H](OCCCc3ccccc3)[C@H](C)OC2=O)c1OCOC(C)=O [F130] was run?
Answer: 0 to 80%

Question: And the pest or weed control at 100 ppm [2, 3]?
Answer: 80 to 100%

Question: What about the pest or weed control at 100 ppm [2, 4] of the same compound?
Answer: 80 to 100%

Question: And the pest or weed control at 100 ppm (Erysiphe cichoracearum)?
Answer: 80 to 100%

Question: And the pest or weed control at 100 ppm (Alternaria solani)?
Answer: 80 to 100%

Question: COc1ccc(O[C@H]2CCC[C@H](NC(=O)c3nccc(OC)c3OCOC(=O)C(C)C)C(=O)O[C@@H](C)[C@@H]2OC2CCCC2)cc1 [F169] was tested. Which pest or weed control at 100 ppm [1] did it give?
Answer: 0 to 80%

Question: What about the pest or weed control at 100 ppm [2, 3] of the same compound?
Answer: 80 to 100%

Question: And the pest or weed control at 100 ppm [2, 4]?
Answer: 80 to 100%

Question: What about the pest or weed control at 100 ppm (Erysiphe cichoracearum) of the same compound?
Answer: 80 to 100%

Question: What about the pest or weed control at 100 ppm (Alternaria solani) of the same compound?
Answer: 80 to 100%
